Experimental data taken from patent US6352958B1, “Cycloimido-substituted benzofused heterocyclic herbicides” (FMC Corporation, priority 1997, dated 2002).

Experiments:
Assay type in all cases: in vivo
[1] = test system: field corn (Zea mays var. Pioneer 3732); test: Preemergence herbicidal activity, corn; conditions: Rate of Application 0.3 Kg/Ha, examined after 12-17 days
Experimental: (§1) The benzofused heterocyclic compounds of this invention were tested for pre- and postemergence herbicidal activity using a variety of crops and weeds. The test plants included soybean (Glycine max var. Winchester), field corn (Zea mays var. Pioneer 3732), wheat (Triticum aestivum var. Lew), morningglory (Ipomea lacunosa or Ipomea hederacea), velvetleaf (Abutilon theophrasti), green foxtail (Setaria viridis), Johnsongrass (Sorghum halepense), blackgrass (Aloepecurus myosuroides), common chickweed (Stellaria media), and common cocklebur (Xanthium strumarium L.).
(§2) For preemergence testing, two disposable fiber flats (8 cm×15 cm×25 cm) for each rate of application of each candidate herbicide were filled to an approximate depth of 6.5 cm with steam-sterilized sandy loam soil. The soil was leveled and impressed with a template to provide five evenly spaced furrows 13 cm long and 0.5 cm deep in each flat. Seeds of soybean, wheat, corn, green foxtail, and johnsongrass were planted in the furrows of the first flat, and seeds of velvetleaf, morningglory, common chickweed, cocklebur, and blackgrass were planted in the furrows of the second flat. The five-row template was employed to firmly press the seeds into place. A topping soil of equal portions of sand and sandy loam soil was placed uniformly on top of each flat to a depth of approximately 0.5 cm. Flats for postemergence testing were prepared in the same manner except that they were planted 9-14 days prior to the preemergence flats and were placed in a greenhouse and watered, thus allowing the seeds to germinate and the foliage to develop.
(§3) In both pre- and postemergence tests, a stock solution of the candidate herbicide was prepared by dissolving 0.27 g of the compound in 20 mL of water/acetone (50/50) containing 0.5% v/v sorbitan monolaurate. For an application rate of 3000 g/ha of herbicide a 10 mL portion of the stock solution was diluted with water/acetone (50/50) to 45 mL.
(§4) The preemergence flats were initially subjected to a light water spray. The four flats were placed two by two along a conveyor belt (i.e., the two preemergence followed by the two postemergence flats). The conveyor belt fed under a spray nozzle mounted about ten inches above the post-emergent foliage. The preemergent flats were elevated on the belt so that the soil surface was at the same level below the spray nozzle as the foliage canopy of the postemergent plants. The spray of herbicidal solution was commenced and once stabilized, the flats were passed under the spray at a speed to receive a coverage equivalent of 100 L/ha. At this coverage the application rates are those shown in the above table for the individual herbicidal solutions. The preemergence flats were watered immediately thereafter, placed in the greenhouse and watered regularly at the soil surface. The postemergence flats were immediately placed in the green-house and not watered until 24 hours after treatment with the test solution. Thereafter they were regularly watered at ground level. After 12-17 days the plants were examined and the phytotoxicity data were recorded.
(§5) Phytotoxicity data were taken as percent control. Percent control was determined by a method similar to the 0 to 100 rating system disclosed in “Research Methods in Weed Science,” 2nd ed., B. Truelove, Ed.; Southern Weed Science Society; Auburn University, Auburn, Ala., 1977.

[2] = test system: velvetleaf (Abutilon theophrasti); test: Preemergence herbicidal activity, velvetleaf; conditions: Rate of Application 0.3 Kg/Ha, examined after 12-17 days
Experimental: as §1, §2, §3, §4, §5

[3] = test system: soybean (Glycine max var. Winchester); test: Postemergence herbicidal activity, soybean; conditions: rate of application 0.3 Kg/Ha, rated after 12-17 days
Experimental: as §1, §2, §3, §4, §5

[4] = test system: field corn (Zea mays var. Pioneer 3732); test: Postemergence herbicidal activity, corn; conditions: rate of application 0.3 Kg/Ha, rated after 12-17 days
Experimental: as §1, §2, §3, §4, §5

[5] = test system: morningglory (Ipomea lacunosa or Ipomea hederacea); test: Preemergence herbicidal activity, morningglory; conditions: Rate of Application 0.3 Kg/Ha, examined after 12-17 days
Experimental: as §1, §2, §3, §4, §5

[6] = test system: green foxtail (Setaria viridis); test: Preemergence herbicidal activity, green foxtail; conditions: Rate of Application 0.3 Kg/Ha, examined after 12-17 days
Experimental: as §1, §2, §3, §4, §5

[7] = test system: velvetleaf (Abutilon theophrasti); test: Postemergence herbicidal activity, velvetleaf; conditions: rate of application 0.3 Kg/Ha, rated after 12-17 days
Experimental: as §1, §2, §3, §4, §5

[8] = test system: wheat (Triticum aestivum var. Lew); test: Postemergence herbicidal activity, wheat; conditions: rate of application 0.3 Kg/Ha, rated after 12-17 days
Experimental: as §1, §2, §3, §4, §5

[9] = test system: soybean (Glycine max var. Winchester); test: Preemergence herbicidal activity, soybean; conditions: Rate of Application 0.3 Kg/Ha, examined after 12-17 days
Experimental: as §1, §2, §3, §4, §5

[10] = test system: common chickweed (Stellaria media); test: Preemergence herbicidal activity, chickweed; conditions: Rate of Application 0.3 Kg/Ha, examined after 12-17 days
Experimental: as §1, §2, §3, §4, §5

[11] = test system: wheat (Triticum aestivum var. Lew); test: Preemergence herbicidal activity, wheat; conditions: Rate of Application 0.3 Kg/Ha, examined after 12-17 days
Experimental: as §1, §2, §3, §4, §5

[12] = test system: Johnsongrass (Sorghum halepense); test: Preemergence herbicidal activity, johnsongrass; conditions: Rate of Application 0.3 Kg/Ha, examined after 12-17 days
Experimental: as §1, §2, §3, §4, §5

[13] = test system: common chickweed (Stellaria media); test: Postemergence herbicidal activity, chickweed; conditions: rate of application 0.3 Kg/Ha, rated after 12-17 days
Experimental: as §1, §2, §3, §4, §5

[14] = test system: common cocklebur (Xanthium strumarium L.); test: Postemergence herbicidal activity, cocklebur; conditions: rate of application 0.3 Kg/Ha, rated after 12-17 days
Experimental: as §1, §2, §3, §4, §5

[15] = test system: morningglory (Ipomea lacunosa or Ipomea hederacea); test: Postemergence herbicidal activity, morningglory; conditions: rate of application 0.3 Kg/Ha, rated after 12-17 days
Experimental: as §1, §2, §3, §4, §5

[16] = test system: green foxtail (Setaria viridis); test: Postemergence herbicidal activity, green foxtail; conditions: rate of application 0.3 Kg/Ha, rated after 12-17 days
Experimental: as §1, §2, §3, §4, §5

[17] = test system: common cocklebur (Xanthium strumarium L.); test: Preemergence herbicidal activity, cocklebur; conditions: Rate of Application 0.3 Kg/Ha, examined after 12-17 days
Experimental: as §1, §2, §3, §4, §5

[18] = test system: Johnsongrass (Sorghum halepense); test: Postemergence herbicidal activity, johnsongrass; conditions: rate of application 0.3 Kg/Ha, rated after 12-17 days
Experimental: as §1, §2, §3, §4, §5

SMILES | PREEMERGENCE HERBICIDAL ACTIVITY (% CONTROL) CRN [1] | PREEMERGENCE HERBICIDAL ACTIVITY (% CONTROL) ABUTH [2] | Postemergence herbicidal activity (% control) SOY [3] | Postemergence herbicidal activity (% control) CRN [4] | PREEMERGENCE HERBICIDAL ACTIVITY (% CONTROL) IPOSS [5] | PREEMERGENCE HERBICIDAL ACTIVITY (% CONTROL) SETVI [6] | Postemergence herbicidal activity (% control) ABUTH [7] | Postemergence herbicidal activity (% control) WHT [8] | PREEMERGENCE HERBICIDAL ACTIVITY (% CONTROL) SOY [9] | PREEMERGENCE HERBICIDAL ACTIVITY (% CONTROL) STEME [10] | PREEMERGENCE HERBICIDAL ACTIVITY (% CONTROL) WHT [11] | PREEMERGENCE HERBICIDAL ACTIVITY (% CONTROL) SORHA [12] | Postemergence herbicidal activity (% control) STEME [13] | Postemergence herbicidal activity (% control) XANPE [14] | Postemergence herbicidal activity (% control) IPOSS [15] | Postemergence herbicidal activity (% control) SETVI [16] | PREEMERGENCE HERBICIDAL ACTIVITY (% CONTROL) XANPE [17] | Postemergence herbicidal activity (% control) SORHA [18]
Cn1c(C(F)(F)F)cc(=O)n(-c2ccc(Cl)c3cc(C=O)oc23)c1=O [Compound 265] | 80% | 90% | 70% | 60% | 100% | 80% | 100% | 40% | 70% | 20% | 40% | 60% | 30% | 20% | 100% | 40% | 70% | 20%
COC(=O)Cc1nc2c(-n3c(=O)cc(C(F)(F)F)n(C)c3=O)c(F)cc(Br)c2o1 [Compound 49] | 80% | 100% | 95% | 80% | 100% | 100% | 100% | 70% | 95% | 20% | 50% | 90% | 40% | 30% | 100% | 100% | 90% | 90%
CC(O)Cc1cc2c(Cl)cc(F)c(-n3c(=O)cc(C(F)(F)F)n(C)c3=O)c2o1 (stereo not drawn) [Compound 243] | 95% | 100% | 95% | 95% | 100% | 100% | 100% | 70% | 100% | 100% | 80% | 100% | 100% | 100% | 100% | 100% | 100% | 100%
Cn1c(C(F)(F)F)cc(=O)n(-c2ccc(Cl)c3cc(C(Br)Br)oc23)c1=O [Compound 233] | 70% | 100% | 90% | 60% | 95% | 60% | 100% | 30% | 40% | 20% | 30% | 50% | 30% | 30% | 100% | 30% | 20% | 30%
Cn1c(C(F)(F)F)cc(=O)n(-c2ccc(Cl)c3cc(C(C)(C)C)oc23)c1=O [Compound 226] | 70% | 100% | 70% | 80% | 90% | 100% | 100% | 40% | 70% | 90% | 50% | 80% | 80% | 90% | 95% | 100% | 60% | 80%
CC(O)c1cc2c(Cl)cc(F)c(-n3c(=O)cc(C(F)(F)F)n(C)c3=O)c2o1 (stereo not drawn) [Compound 240] | 95% | 100% | 95% | 100% | 100% | 100% | 100% | 95% | 100% | 100% | 95% | 100% | 100% | 100% | 100% | 100% | 100% | 100%
Cn1c(C(F)(F)F)cc(=O)n(-c2c(F)cc(F)c3cc(C(C)(C)C)oc23)c1=O [Compound 228] | 95% | 100% | 90% | 80% | 100% | 100% | 100% | 50% | 100% | 100% | 80% | 100% | 80% | 95% | 100% | 100% | 90% | 90%
